Laboratory results: PMC6104039 (Nature Communications, 2018)
Where “and” joins values, the source holds several entries; their conditions need not be identical. Equal values may be shown once.

Test system: SkM
Assay: Lipidomic profiling of skeletal muscle (quadriceps) of mice on chow or HFD
Assay type: in vivo
Excerpt: Male C57BL6/J mice were obtained from the Animal Resources Centre in Perth (WA, Australia). […] Treatment was commenced at the same time as mice were randomised to dietary groups. The experiments were approved by the UNSW animal care and ethics committee (ACEC 15/48B), and followed guidelines issued by the National Health and Medical Research Council of Australia.
Lipids were extracted from frozen tissue samples or cells using a two-phase procedure with methyl-tert-butyl ether (MTBE)/methanol/water (10:3:2.5, v/v/v)[67]. Frozen tissue samples (~20 mg) were homogenized in 0.2 mL methanol containing 0.01% butylated hydroxytoluene (BHT), using a Precellys 24 homogenizer and Cryolys cooling unit (Bertin Technologies) with CK14 (1.4-mm ceramic) beads. The homogenates were spiked with an internal standard mixture comprising 5 nmole 19:0/19:0 phosphatidylcholine and 2 nmole each of 17:0/17:0 phosphatidylethanolamine, 17:0/17:0 phosphatidylserine, 17:0/17:0 d5-diacylglycerol, 17:0/17:0 phosphatidylglycerol, 14:0/14:0/14:0/14:0 cardiolipin, 18:1/12:0 SM, 18:1/17:0 ceramide, 18:1/12:0 glucosylceramide, 18:1/12:0 lactosylceramide, 18:1/12:0 sulfatide (all from Avanti Polar Lipids, USA), and 17:0/17:0/17:0 TAG (Cayman Chemical, USA), then transferred to 10 mL screw cap glass tubes. The homogenization tubes containing beads were then washed with another 0.3 mL methanol, and this wash was combined with the first methanol extract, after which 1.7 mL MTBE was added and the samples were sonicated in an ice-cold sonicating water bath (Thermoline Scientific, Australia) for 30 min. Phase separation was induced by addition of 417 µL of mass spectrometry-grade water followed by vortexing and centrifugation at 1000 × g for 10 min. The upper organic phase was collected into 5 mL glass tubes. The lower phase was re-extracted by adding 1 mL MTBE, 300 μL methanol, and 250 μL water. The organic phases were combined in the 5 mL glass tubes and dried under vacuum in a Savant SC210 SpeedVac (Thermo Scientific), then reconstituted in 500 μL methanol and stored at −20 °C until analysis.
Lipidomic profiling was performed on a QExactive Plus mass spectrometer with heated electrospray ionization (HESI) probe and a Dionex UltiMate 2000 LC pump (Thermo Fisher Scientific). Extracts were resolved on a 2.1 × 100 mm Waters Acquity C18 UPLC column (1.7 µm […]), using a binary gradient in which mobile phase A consisted of acetonitrile:water (60:40), 10 mM ammonium formate, 0.1% formic acid; and mobile phase B was isopropanol:acetonitrile (90:10), 10 mM ammonium formate, 0.1% formic acid[68]. The flow rate was 260 µL/min and column oven 55 °C. Data was acquired in full scan/data-dependent MS^2 mode (full scan resolution 70,000 FWHM, scan range 400–1200 m/z). The ten most abundant ions in each cycle were subjected to MS^2 using an isolation window of 1.4 m/z, collision energy 30 eV, resolution 17,500, maximum integration time 110 ms and dynamic exclusion window 10 s. An exclusion list of background ions was used based on a solvent blank. LipidSearch v4.1.30 software (ThermoFisher Scientific) was used for chromatogram alignment, peak identification and integration. Each lipid peak was manually verified for column elution time and characteristic fragment ions. Data were then exported to an Excel spreadsheet for normalisation of each lipid to its class-specific internal standard, and lipid concentrations were calculated relative to the internal standard.
Data were log transformed, then subjected to two-tailed t-tests adjusted for multiple comparisons using GraphPad PRISM (Benjamini, Krieger and Yekutieli correction, Q = 1%).

[1] = 5 mg/kg daily, 4–6 weeks, HFD group

C[C@@](N)(CO)CCc1ccc(OCc2ccc(Cl)c(Cl)c2)cc1 [P053, (S)-2-amino-4-(4-(3,4-dichlorobenzyloxy)phenyl)-2-methylbutan-1-ol]
HexCer content of SkM (5 mg/kg daily, 4–6 weeks): not significantly affected
levels of common phospholipids in SkM (5 mg/kg daily, 4–6 weeks): did not affect
total ceramide content of SkM (5 mg/kg daily, 4–6 weeks): reduced total ceramide content
42:2 SM in SkM [1]: significantly increased
very long chain ceramides (C22:0, C24:0 and C24:1) in SkM [1]: significantly increased
mean levels of 36:1 SM in SkM, lower than vehicle (5 mg/kg daily, 4–6 weeks, both diets, not statistically significant): 13%
Ceramide 18:1/16:0 content of skeletal muscle (Chow + P053, individual mice): 3.10 and 1.77 (2×) and 2.74 and 1.05 and 2.59 and 2.04 and 2.73 and 4.80 and 1.58 and 1.47 and 1.10 and 1.69 and 1.86 and 1.78 and 2.17 and 1.48 (2×)
Ceramide 18:1/18:0 content of skeletal muscle (Chow + P053, individual mice): 20.71 and 17.58 and 23.00 and 14.06 and 16.77 and 18.40 (2×) and 20.26 and 15.08 and 13.86 and 23.04 and 23.06 and 23.01 and 18.78 and 15.44 and 14.24 and 19.21 and 15.87
Ceramide 18:1/20:0 content of skeletal muscle (Chow + P053, individual mice): 0.50 and 0.38 (2×) and 0.51 and 0.33 and 0.44 and 0.57 and 0.41 and 0.18 (2×) and 0.21 and 0.17 (2×) and 0.22 and 0.15 (2×) and 0.13 and 0.20
Ceramide 18:1/22:0 content of skeletal muscle (Chow + P053, individual mice): 1.58 and 1.18 and 1.27 and 1.31 and 1.33 and 1.24 and 2.02 and 1.70 and 0.82 and 0.97 and 0.93 and 1.37 and 0.85 and 1.53 and 1.04 (2×) and 0.62 and 0.77
Ceramide 18:1/24:0 content of skeletal muscle (Chow + P053, individual mice): 2.05 and 1.75 and 2.39 and 1.84 (2×) and 2.22 and 3.08 and 3.05 and 1.41 and 1.81 and 2.08 and 2.47 and 0.10 and 2.48 and 0.14 and 1.18 and 1.87 and 1.61
Ceramide 18:1/24:1 content of skeletal muscle (Chow + P053, individual mice): 5.19 and 4.17 and 5.42 and 4.06 and 4.86 and 4.12 and 6.25 and 6.63 and 2.73 and 3.16 and 3.08 and 4.65 and 3.22 and 4.69 and 3.70 and 2.46 and 3.14 and 2.75
Ceramide 18:2/18:0 content of skeletal muscle (Chow + P053, individual mice): 1.63 and 1.36 and 1.77 and 0.81 and 1.04 and 1.34 and 1.47 (2×) and 1.60 and 2.11 and 1.87 and 1.91 and 1.85 and 1.31 and 1.49 and 1.75 and 1.71 and 1.50
SM 34:1 content of skeletal muscle (Chow + P053, individual mice): 155.00 and 75.29 and 64.44 and 51.84 and 157.48 and 87.87 and 37.17 and 61.63 and 56.39 and 26.64 and 21.61 and 27.95 and 26.10 and 29.76 and 25.67 and 36.05 and 29.79 and 28.45
SM 36:1 content of skeletal muscle (Chow + P053, individual mice): 408.35 and 391.75 and 244.36 and 209.60 and 257.92 and 303.73 and 198.39 and 281.99 and 211.03 and 160.27 and 169.50 and 130.04 and 157.61 and 130.34 and 143.84 and 173.19 and 158.59 and 154.00
SM 36:2 content of skeletal muscle (Chow + P053, individual mice): 5.68 and 10.86 and 10.80 and 2.69 and 6.07 and 9.49 and 5.32 and 8.00 and 6.39 and 4.78 and 4.58 and 3.87 and 4.48 and 3.64 and 4.59 and 6.14 and 4.52 and 4.32
SM 38:1 content of skeletal muscle (Chow + P053, individual mice): 13.22 and 12.48 and 5.72 and 6.13 and 5.91 and 5.41 and 17.63 and 9.33 and 1.53 and 1.84 and 1.68 and 1.39 and 1.34 and 1.51 and 1.41 and 1.37 and 2.56 and 1.65
SM 40:1 content of skeletal muscle (Chow + P053, individual mice): 28.35 and 29.55 and 12.61 and 11.97 and 14.98 and 15.26 and 24.07 and 17.95 and 17.87 and 21.14 and 17.97 and 25.28 and 16.09 and 25.29 and 21.99 and 14.69 and 26.69 and 18.42
SM 40:2 content of skeletal muscle (Chow + P053, individual mice): 2.18 and 3.25 and 1.19 and 1.06 and 1.18 and 0.98 and 4.74 and 3.00 and 1.89 and 2.04 and 2.38 and 2.68 and 1.85 and 2.58 and 2.52 and 1.52 and 2.57 and 1.93
SM 42:1 content of skeletal muscle (Chow + P053, individual mice): 26.96 and 32.88 and 11.84 and 14.58 and 16.55 and 13.22 and 32.58 and 20.65 and 17.62 and 18.82 and 16.13 and 27.77 and 16.56 and 31.99 and 21.25 and 13.55 and 28.43 and 16.15
SM 42:2 content of skeletal muscle (Chow + P053, individual mice): 78.98 and 85.87 and 38.45 and 39.28 and 45.06 and 42.02 and 67.24 and 61.76 and 56.89 and 58.53 and 52.21 and 80.69 and 50.18 and 74.84 and 63.29 and 51.49 and 78.04 and 54.99
SM 42:3 content of skeletal muscle (Chow + P053, individual mice): 11.26 and 12.44 and 7.12 and 5.50 and 7.16 and 6.69 and 11.58 and 9.28 and 9.04 and 9.58 and 8.81 and 14.49 and 7.86 and 11.12 and 9.61 and 8.30 and 13.11 and 8.65
total SkM TAG content, lower than HFD vehicle group (HFD + P053): 60%
Ceramide 18:1/16:0 content of skeletal muscle (HFD + P053, individual mice): 1.10 and 2.17 and 1.83 and 1.12 (2×) and 2.90 and 1.46 and 0.87 (2×) and 1.73 and 3.22 and 1.34 and 1.89 and 1.27 and 1.41 and 1.14 and 1.04 and 0.99 and 1.01
Ceramide 18:1/18:0 content of skeletal muscle (HFD + P053, individual mice): 14.13 and 13.78 and 15.90 and 15.58 and 21.96 and 19.36 and 13.96 and 15.88 and 24.31 and 19.32 and 17.61 and 21.70 and 17.37 and 21.41 and 15.56 and 12.14 and 18.07 and 11.49 and 13.22
Ceramide 18:1/20:0 content of skeletal muscle (HFD + P053, individual mice): 0.45 (2×) and 0.54 and 0.57 and 0.65 and 0.48 and 0.42 and 0.40 and 0.77 and 0.10 (2×) and 0.08 (2×) and 0.06 (2×) and 0.07 (2×) and 0.05 and 0.09
Ceramide 18:1/22:0 content of skeletal muscle (HFD + P053, individual mice): 1.69 and 1.43 and 1.68 and 1.85 and 2.17 and 1.53 and 1.50 and 1.46 and 2.26 and 1.14 and 1.16 and 1.47 and 1.36 and 1.00 and 1.18 and 0.98 and 1.30 and 1.04 and 1.72
Ceramide 18:1/24:0 content of skeletal muscle (HFD + P053, individual mice): 1.53 (2×) and 1.50 and 1.85 and 1.78 and 2.27 and 1.57 (2×) and 1.81 and 2.48 and 1.41 and 1.31 and 1.65 and 1.24 and 1.83 and 1.21 and 1.67 and 1.20 and 1.73
Ceramide 18:1/24:1 content of skeletal muscle (HFD + P053, individual mice): 4.07 and 3.37 and 3.91 and 3.88 and 4.88 and 3.55 (2×) and 3.81 and 5.60 and 2.28 and 2.44 and 3.08 and 2.82 and 2.33 and 2.75 and 2.49 and 2.86 and 2.35 and 3.30
Ceramide 18:2/18:0 content of skeletal muscle (HFD + P053, individual mice): 0.85 (2×) and 1.05 and 0.95 and 1.06 and 1.53 and 1.34 and 0.98 and 1.27 and 2.27 and 1.58 and 1.22 and 1.29 (2×) and 0.73 and 0.92 and 1.11 and 0.97 and 0.74
SM 34:1 content of skeletal muscle (HFD + P053, individual mice): 56.88 and 99.05 and 291.61 and 79.88 and 179.42 and 129.66 and 30.83 and 225.53 and 214.19 and 48.41 and 47.17 and 48.35 and 37.16 and 22.64 and 38.24 and 42.99 and 33.41 and 36.54 and 32.79
SM 36:1 content of skeletal muscle (HFD + P053, individual mice): 417.25 and 223.91 and 402.67 and 173.58 and 151.95 and 224.57 and 278.63 and 314.63 and 349.53 and 221.70 and 178.54 and 207.41 and 149.58 and 139.86 and 137.50 and 198.09 and 163.61 and 154.30 and 147.61
